Experimental data taken from patent US9517279B2, “2-alkoxy-11-hydroxyaporphine derivatives and uses thereof” (The McLean Hospital Corporation, priority 2010, dated 2016).
Where a name gives a salt, the structure may show the parent alone. Read-outs that look alike come from different tables or passages of the source.

Assays:
D1^low = target: T1, D1^low (Rattus norvegicus, UniProt P18901); assay: Competitive radioreceptor binding, D1 low-affinity state, rat striatum [3H]SCH23390
T1 construct: membrane-containing homogenates of rat corpus striatum tissue; from tissue; host or cells: rat corpus striatum
T1 sequence (P18901 whole entry): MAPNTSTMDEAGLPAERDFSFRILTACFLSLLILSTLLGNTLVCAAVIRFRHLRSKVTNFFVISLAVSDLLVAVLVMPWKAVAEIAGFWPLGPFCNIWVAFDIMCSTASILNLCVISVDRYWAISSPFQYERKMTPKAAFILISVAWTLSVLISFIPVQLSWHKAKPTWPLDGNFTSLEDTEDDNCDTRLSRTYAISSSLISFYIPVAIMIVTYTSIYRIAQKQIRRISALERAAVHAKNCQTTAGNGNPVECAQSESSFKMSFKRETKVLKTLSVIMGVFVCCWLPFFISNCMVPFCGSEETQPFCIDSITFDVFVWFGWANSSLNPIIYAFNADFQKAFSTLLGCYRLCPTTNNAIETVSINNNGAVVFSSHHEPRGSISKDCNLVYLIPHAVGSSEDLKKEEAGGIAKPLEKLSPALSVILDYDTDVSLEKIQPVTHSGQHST

human D3 clone = target: T2, human D3 clone (Homo sapiens, UniProt P35462); assay: Competitive binding, human D3 clone [3H]domperidone; conditions: for Ki: human D3 clone, [3H]domperidone
T2 construct: expressed in transfected cells
T2 sequence (P35462 whole entry): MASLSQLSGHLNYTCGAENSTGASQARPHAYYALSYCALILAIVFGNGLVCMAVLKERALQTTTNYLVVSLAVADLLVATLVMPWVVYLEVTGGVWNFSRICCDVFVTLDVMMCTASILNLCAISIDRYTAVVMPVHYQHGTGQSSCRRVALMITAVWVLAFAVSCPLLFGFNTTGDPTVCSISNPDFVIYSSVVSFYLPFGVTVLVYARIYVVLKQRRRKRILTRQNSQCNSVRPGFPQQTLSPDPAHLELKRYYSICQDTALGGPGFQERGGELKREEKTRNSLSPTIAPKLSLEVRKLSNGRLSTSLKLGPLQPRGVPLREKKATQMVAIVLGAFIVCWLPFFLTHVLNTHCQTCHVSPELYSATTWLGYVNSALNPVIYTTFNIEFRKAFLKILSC

D2^low = target: T3, D2^low (Rattus norvegicus, UniProt P61169); assay: Competitive radioreceptor binding, D2 low-affinity state, rat striatum [3H]domperidone
T3 construct: membrane-containing homogenates of rat corpus striatum tissue; from tissue; host or cells: rat corpus striatum
T3 sequence (P61169 whole entry): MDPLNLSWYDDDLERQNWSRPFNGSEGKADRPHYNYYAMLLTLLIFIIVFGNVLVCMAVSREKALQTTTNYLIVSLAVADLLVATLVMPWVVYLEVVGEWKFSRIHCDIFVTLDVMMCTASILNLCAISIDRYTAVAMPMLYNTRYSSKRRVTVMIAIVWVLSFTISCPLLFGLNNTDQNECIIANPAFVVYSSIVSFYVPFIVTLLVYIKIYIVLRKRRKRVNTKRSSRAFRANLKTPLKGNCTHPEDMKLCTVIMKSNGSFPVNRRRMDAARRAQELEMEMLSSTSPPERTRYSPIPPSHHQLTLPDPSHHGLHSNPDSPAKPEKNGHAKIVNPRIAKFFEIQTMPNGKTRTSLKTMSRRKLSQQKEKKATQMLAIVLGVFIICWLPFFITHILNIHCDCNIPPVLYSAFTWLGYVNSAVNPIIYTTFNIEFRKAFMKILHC

D1^high = target: T4, D1^high (Rattus norvegicus, UniProt P18901); assay: Competitive radioreceptor binding, D1 high-affinity state, rat striatum [3H]SCH23390
T4 construct: membrane-containing homogenates of rat corpus striatum tissue; from tissue; host or cells: rat corpus striatum
T4 sequence (P18901 whole entry): as the sequence (P18901 whole entry) above

D2^high = target: T5, D2^high (Rattus norvegicus, UniProt P61169); assay: Competitive radioreceptor binding, D2 high-affinity state, rat striatum [3H]domperidone; conditions: for D2^high binding affinity (in words): comparison with analogue
T5 construct: membrane-containing homogenates of rat corpus striatum tissue; from tissue; host or cells: rat corpus striatum
T5 sequence (P61169 whole entry): as the sequence (P61169 whole entry) above

D3^high = target: T6, D3^high (Homo sapiens, UniProt P35462); assay: D3 high-affinity state binding (footnote g); conditions: footnote g of Table 1
T6 construct: expressed in transfected cells
T6 sequence (P35462 whole entry): as the sequence (P35462 whole entry) above

D3 rat clone = target: T7, D3 rat clone (Rattus norvegicus, UniProt P19020); assay: Competitive binding, D3 rat clone [3H]domperidone
T7 construct: expressed in transfected cells
T7 sequence (P19020 whole entry): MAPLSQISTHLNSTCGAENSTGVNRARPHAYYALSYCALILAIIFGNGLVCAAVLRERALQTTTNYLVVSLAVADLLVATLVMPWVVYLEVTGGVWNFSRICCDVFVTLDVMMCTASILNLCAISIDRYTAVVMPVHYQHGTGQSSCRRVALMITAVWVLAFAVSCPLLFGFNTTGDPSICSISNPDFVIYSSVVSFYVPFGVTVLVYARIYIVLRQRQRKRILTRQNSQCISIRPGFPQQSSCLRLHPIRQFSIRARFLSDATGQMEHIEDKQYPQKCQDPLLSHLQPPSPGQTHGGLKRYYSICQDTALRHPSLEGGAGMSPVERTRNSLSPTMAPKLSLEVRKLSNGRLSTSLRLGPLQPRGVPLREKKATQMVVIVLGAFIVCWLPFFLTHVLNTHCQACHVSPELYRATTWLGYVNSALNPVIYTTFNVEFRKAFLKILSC

D1 human clone (D1^low) = target: T8, D1 human clone (D1^low) (Homo sapiens, UniProt P21728); assay: Competitive binding, D1 human clone [3H]SCH23390
T8 construct: expressed in transfected cells
T8 sequence (P21728 whole entry): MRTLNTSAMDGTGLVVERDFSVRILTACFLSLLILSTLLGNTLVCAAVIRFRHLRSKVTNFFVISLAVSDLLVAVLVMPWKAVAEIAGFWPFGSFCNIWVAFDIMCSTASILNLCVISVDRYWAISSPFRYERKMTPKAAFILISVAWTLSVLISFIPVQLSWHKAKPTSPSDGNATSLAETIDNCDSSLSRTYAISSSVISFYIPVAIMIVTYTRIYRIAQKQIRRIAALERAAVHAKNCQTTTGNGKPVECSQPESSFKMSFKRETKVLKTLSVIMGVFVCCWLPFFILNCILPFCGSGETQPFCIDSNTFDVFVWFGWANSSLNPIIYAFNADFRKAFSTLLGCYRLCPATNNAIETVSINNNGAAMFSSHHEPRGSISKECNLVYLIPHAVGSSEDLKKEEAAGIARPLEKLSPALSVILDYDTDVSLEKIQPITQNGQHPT

[1] = rat striatum, [3H]SCH23390, read-out: Ki D1^low (class)
[2] = rat striatum, [3H]domperidone, read-out: Ki D2^high

Row | SMILES | Ki (D1^low; [1]) | Ki (D2^low) | Ki D1^high (D1^high) | Ki (D2^high; [2]) | melting point | other results
1 | CN1CCc2cc(OCCF)cc3c2[C@H]1Cc1ccc(O)c(O)c1-3 [8g, R(−)-2-(2-Fluoroethoxy) 10,11-dihydroxyaporphine] | > 2000 nM | 620 ± 260 nM | No D1^high |  |  | D3 affinity (in words) (human D3 clone): no detectable affinity
2 | CN1CCc2cc(OCCF)cc3c2[C@H]1Cc1cccc(O)c1-3 [11g, R(−)-2-(2-fluoroethoxy)-11-hydroxyaporphine] |  | 480 ± 130 nM |  | 1.2 ± 0.4 nM |  | Ki (human D3 clone): 0.89 ± 0.13 µM
3 | CCN1CCc2cc(OCCF)cc3c2[C@H]1Cc1ccc(O)c(O)c1-3 (as salt: HCl) [8d, R(−)-2-fluoroethoxy-N-ethylnorapomorphine] |  |  |  |  | 163 to 165 °C | 
4 | CN1CCc2cc(OCCCF)cc3c2[C@H]1Cc1ccc(O)c(O)c1-3 [8f, R(−)-2-(3-Fluoropropanoxy) 10,11-dihydroxyaporphine] | > 2000 nM |  | No D1^high | 31 nM |  | D3^high affinity (D3^high): did not show any D3^high affinity
5 | CCN1CCc2cc(OCCCF)cc3c2[C@H]1Cc1cccc(O)c1-3 [11c] |  | 400 ± 290 nM | No D1^high | 3.2 ± 2.2 nM |  | Ki (D3 rat clone): 240 ± 33 nM; Ki (D1 human clone (D1^low)): 1300 ± 200 nM; D2^high binding affinity (in words) (D2^high): overall improved binding affinity
6 | CCN1CCc2cc(OCCCF)cc3c2[C@H]1Cc1cccc(O)c1-3 (as salt: HCl) [11c] |  |  |  |  | 156 to 158 °C (dec.) | 
7 | CCN1CCc2cc(OCCI)cc3c2[C@H]1Cc1ccc(O)c(O)c1-3 [8e, R(−)-2-iodoethoxy-N-ethylnorapomorphine] | > 2000 nM | 770 ± 230 nM | No D1^high |  |  | Ki (human D3 clone; bound given in μM): > 10 µM; Ki (D2^high): 5 ± 2.3 nM; D2^high binding affinity (in words) (D2^high): slight drop; selectivity for D2^high over D1, D3, and D2^low (D2^high; in words): high selectivity
8 | CCCN1CCc2cc(OCCF)cc3c2[C@H]1Cc1cccc(O)c1-3 [11b, R(−)-2-(2-fluoroethoxy)-11-hydroxy-N-n-propylnoraporphine] |  | 56 ± 37 nM | No D1^high | 3.5 ± 2 nM |  | Ki (D3 rat clone): 410 ± 62 nM; Ki (D1^low): > 2000 nM; D2^high binding affinity (in words) (D2^high): about the same
9 | Oc1cccc2c1-c1cccc3c1[C@@H](C2)N(CCCF)CC3 [compound 6, R(−)-11-Hydroxy-N-(3-fluoropropyl)noraporphine] | > 2000 nM | 860 ± 170 nM | No D1^high | 6.9 ± 2.1 nM |  | Ki (human D3 clone; bound given in μM): > 10 µM
10 | CN1CCc2cc(OCCCF)cc3c2[C@H]1Cc1ccc(O)c(O)c1-3 (as salt: HCl) [8f, R(−)-2-(3-Fluoropropanoxy) 10,11-dihydroxyaporphine] |  |  |  |  | 170 to 175 °C (dec.) | 
11 | CCN1CCc2cc(OCCI)cc3c2[C@H]1Cc1ccc(O)c(O)c1-3 (as salt: HCl) [8e, R(−)-2-iodoethoxy-N-ethylnorapomorphine] |  |  |  |  | 155 to 163 °C (dec.) | 
12 | CCN1CCc2cc(OCCCF)cc3c2[C@H]1Cc1ccc(O)c(O)c1-3 (as salt: HCl) [8c, R(−)-2-(3-Fluoropropanoxy) 10,11-dihydroxy-N-ethylnoraporphine] |  |  |  |  | 174 to 176 °C (dec.) | 
13 | CCCN1CCc2cccc3c2[C@H]1Cc1cccc(O)c1-3 [3b, reference compound] |  |  |  |  |  | Ki (human D3 clone): 1.7 ± 0.25 µM
14 | CCCN1CCc2cc(OCCF)cc3c2[C@H]1Cc1ccc(O)c(O)c1-3 (as salt: HCl) [8b, R(−)-2-Fluoroethyoxy-NPA] |  |  |  |  | 203 to 205 °C (dec.) | 
15 | CCCN1CCc2cc(OC)cc3c2[C@H]1Cc1ccc(O)c(O)c1-3 [2b, 2-MeO-NPA, reference compound] |  | 805 ± 140 nM |  | 5.1 ± 1.3 nM |  | Ki (D1^low): > 2000 nM; Ki (D1^high): 8.1 ± 0.7 nM
16 | CCN1CCc2cc(OCCCF)cc3c2[C@H]1Cc1ccc(O)c(O)c1-3 [8c, R(−)-2-(3-Fluoropropanoxy) 10,11-dihydroxy-N-ethylnoraporphine] | > 2000 nM | 1600 ± 780 nM | No D1^high | 6.1 ± 3 nM |  | fold increase in D2^high affinity (D2^high; in comparison to 8a): ~4 fold
17 | CN1CCc2cc(OCCF)cc3c2[C@H]1Cc1ccc(O)c(O)c1-3 (as salt: salt) [8g, R(−)-2-(2-Fluoroethoxy) 10,11-dihydroxyaporphine] |  |  |  |  | 236 to 238 °C (dec.) | 
18 | Oc1cccc2c1-c1cccc3c1[C@@H](C2)N(CCCF)CC3 (as salt: HCl) [compound 6, R(−)-11-Hydroxy-N-(3-fluoropropyl)noraporphine] |  |  |  |  | 195 to 197 °C (dec.) | 
19 | CCCN1CCc2cc(OCCF)cc3c2[C@H]1Cc1ccc(O)c(O)c1-3 [8b, R(−)-2-Fluoroethyoxy-NPA] | > 2000 nM | 990 ± 35 nM | No D1^high | 3.7 nM |  | Ki (human D3 clone): 2.2 ± 0.33 µM
20 | CCN1CCc2cc(OCCF)cc3c2[C@H]1Cc1ccc(O)c(O)c1-3 [8d, R(−)-2-fluoroethoxy-N-ethylnorapomorphine] | > 2000 nM | 2400 ± 1500 nM | No D1^high | 2.5 nM |  | fold improvement in D2^high binding affinity (D2^high; compared with 8c): more than 2 fold
21 | CCCN1CCc2cc(OCCCF)cc3c2[C@H]1Cc1cccc(O)c1-3 [11a] | > 2000 nM |  | No D1^high |  |  | Ki (D3 rat clone): 100 ± 14 nM
22 | CCN1CCc2cc(OCCF)cc3c2[C@H]1Cc1cccc(O)c1-3 [11d, R(−)-2-(2-fluoroethoxy)-11-hydroxy-N-n-ethylnoraporphine] |  |  | No D1^high |  |  | Ki (D3 rat clone): 550 ± 89 nM; Ki (D1 human clone (D1^low); D1 human clone, [3H]SCH23390, read-out: Ki D1^low): 810 ± 120 nM
23 | CCCN1CCc2cc(F)cc3c2[C@H]1Cc1ccc(O)c(O)c1-3 [2c, 2-F-NPA, reference compound] | > 2000 nM | 1800 ± 340 nM | No D1^high | 2.7 ± 1.3 nM |  | 
24 | CCCN1CCc2cc(OCCCF)cc3c2[C@H]1Cc1ccc(O)c(O)c1-3 [8a, R(−)-2-(3-fluoropropanoxy)-NPA] |  | 3000 nM | No D1^high | 28 ± 15 nM |  | Ki (D1^low): > 2000 nM; Ki (human D3 clone): 0.43 ± 0.064 µM; Ki (D2^high): 27 nM
